Holding throughout (assay): relative viability (nuclei count vs DMSO), 5 days (fraction); higher = more cells survive
Compound in assay [1]: CCCS(=O)(=O)Nc1ccc(F)c(C(=O)c2c[nH]c3ncc(-c4ccc(Cl)cc4)cc23)c1F [Vemurafenib] + CC(=O)c1c(C)c2cnc(Nc3ccc(N4CCNCC4)cn3)nc2n(C2CCCC2)c1=O [Palbociclib] (partner 0.5 µM)
In a few lines: (§1)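 After 5 days of treatment, lung cancer cells in 1536-well plates were fixed and stained in a single step (final 0.05% Triton X-100, 1% formaldehyde, 1 ug/ml Hoechst) and their nuclei counted on 4× images. Treatment had been applied by pin tool the day after seeding as one drug alone or as a fixed anchor-drug dose with five library-drug doses (not always all listed) in √10 steps. Relative viability is the nuclei count of treated wells divided by that of vehicle wells, and values are medians of duplicate plates.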

Compound in the assay “Vemurafenib + Decitabine”: CCCS(=O)(=O)Nc1ccc(F)c(C(=O)c2c[nH]c3ncc(-c4ccc(Cl)cc4)cc23)c1F [Vemurafenib] + Nc1ncn([C@H]2C[C@H](O)[C@@H](CO)O2)c(=O)n1 [Decitabine] (partner 2 µM)
The method in brief: as §1

Compound in the assay “Vemurafenib + Trametinib”: CCCS(=O)(=O)Nc1ccc(F)c(C(=O)c2c[nH]c3ncc(-c4ccc(Cl)cc4)cc23)c1F [Vemurafenib] + CC(=O)Nc1cccc(-n2c(=O)n(C3CC3)c(=O)c3c(Nc4ccc(I)cc4F)n(C)c(=O)c(C)c32)c1 [Trametinib] (partner 0.02 µM)
The method in brief: as §1

Compound in the assay “OSI-027 + Trametinib”: COc1cccc2cc(-c3nc([C@H]4CC[C@H](C(=O)O)CC4)n4ncnc(N)c34)[nH]c12 [OSI-027] + CC(=O)Nc1cccc(-n2c(=O)n(C3CC3)c(=O)c3c(Nc4ccc(I)cc4F)n(C)c(=O)c(C)c32)c1 [Trametinib] (partner 0.02 µM)
In a few lines:
as §1

Compound in the assay “Alpelisib + OSI-027”: Cc1nc(NC(=O)N2CCC[C@H]2C(N)=O)sc1-c1ccnc(C(C)(C)C(F)(F)F)c1 [Alpelisib] + COc1cccc2cc(-c3nc([C@H]4CC[C@H](C(=O)O)CC4)n4ncnc(N)c34)[nH]c12 [OSI-027] (partner 0.5 µM)
In a few lines: as §1

For the cell line UMC-11, the relative viability came out at 0.328 in assay [1] (first compound 0.03162 µM); 0.313 in assay [1] (first compound 0.1 µM); 0.315 in assay [1] (first compound 1 µM); 0.568 with Vemurafenib + Decitabine (first compound 0.03162 µM); 0.595 with Vemurafenib + Decitabine (first compound 0.1 µM); 0.545 with Vemurafenib + Decitabine (first compound 1 µM). Besides, the relative viability was determined as 0.657 with Vemurafenib + Trametinib (first compound 0.03162 µM); 0.756 with Vemurafenib + Trametinib (first compound 0.1 µM); 0.475 with Vemurafenib + Trametinib (first compound 0.3162 µM); 0.355 in the assay with Vemurafenib + Trametinib (first compound 1 µM); 0.727 with OSI-027 + Trametinib (first compound 0.01 µM); 0.772 with OSI-027 + Trametinib (first compound 0.03162 µM). Moreover, the relative viability in the assay with OSI-027 + Trametinib (first compound 0.1 µM) came to 0.579; with OSI-027 + Trametinib (first compound 0.3162 µM), 0.472; in the assay with OSI-027 + Trametinib (first compound 1 µM), 0.392; with Alpelisib + OSI-027 (first compound 0.04 µM), 0.473; with Alpelisib + OSI-027 (first compound 0.1265 µM), 0.464; with Alpelisib + OSI-027 (first compound 0.4 µM) it was 0.502. Moreover, the figures for the relative viability in the assay with Alpelisib + OSI-027 (first compound 1.265 µM) and with Alpelisib + OSI-027 (first compound 4 µM) were 0.438 and 0.462, respectively.
